Entries after “also recorded” stand apart in the source; their conditions may differ.
Test system: PCSK9 expression in HepG2 cells
Assay: HepG2 cellular assay, PCSK9 Western blot
Type: cell-based
Conditions: 16 h treatment, 5 or 50 µM, triplicate, normalized to DMSO
Description: Reaction buffer (1 µL) and template (0.5 µL) were added and reaction progress was
Relative activity was cal-
450 culated using the slope of fluorescence increase over time (15–30 min post reaction initia-
Gene blocks were purchased from IDT
Digestion with Sgf I and PmeI allowed for
Sequence-verified plasmids
460 were cloned into DH5α E. coli for standard large-scale DNA plasmid preparation.
Gene blocks were purchased
Digestion with NdeI and XhoI
470 (4.5 g/L high-glucose DMEM, 2 mM L-glutamine, 10% fetal bovine serum, 1% penicillin-
Cells were lysed (100 µL RIPA buffer,
Protein lysates (24 µg) were separated by denaturing polyacrylamide
480 PCSK9 rabbit monoclonal antibody, 5% BSA in PBS-T). The PCSK9 probed membrane
HRP-labeled bands were visualized
Figure S12. […] PCSK9 expression in HepG2 cells
treated 16 h with PF846 or screening hit 8 (5 or 50 µM) or vehicle control (DMSO) was analyzed in triplicate
(also on this page, place not known: S12894 GAPDH pro m DMSO 5 μM DMSO μM 5 μM 50 μM PCSK9 PF846 hit8 50)
(1 picture or pasted object on this page, not shown here)

Cc1cccc2ccnc(N(C(=O)[C@H]3CCCN(C(=O)c4cccc5c(C#N)c[nH]c45)C3)[C@@H]3CCCNC3)c12 [Compound 8]
PCSK9 protein levels in HepG2 cells (in words): significantly reduced; also recorded: lower levels of endogenous PCSK9

— paper PMC11503492, “Activity-Based DNA-Encoded Library Screening for Selective Inhibitors of Eukaryotic Translation” (ACS Central Science, 2024)
